Target: T1, Sodium/hydrogen exchanger 9B2 (Homo sapiens, UniProt Q86UD5)
T1 sequence (Q86UD5 whole entry): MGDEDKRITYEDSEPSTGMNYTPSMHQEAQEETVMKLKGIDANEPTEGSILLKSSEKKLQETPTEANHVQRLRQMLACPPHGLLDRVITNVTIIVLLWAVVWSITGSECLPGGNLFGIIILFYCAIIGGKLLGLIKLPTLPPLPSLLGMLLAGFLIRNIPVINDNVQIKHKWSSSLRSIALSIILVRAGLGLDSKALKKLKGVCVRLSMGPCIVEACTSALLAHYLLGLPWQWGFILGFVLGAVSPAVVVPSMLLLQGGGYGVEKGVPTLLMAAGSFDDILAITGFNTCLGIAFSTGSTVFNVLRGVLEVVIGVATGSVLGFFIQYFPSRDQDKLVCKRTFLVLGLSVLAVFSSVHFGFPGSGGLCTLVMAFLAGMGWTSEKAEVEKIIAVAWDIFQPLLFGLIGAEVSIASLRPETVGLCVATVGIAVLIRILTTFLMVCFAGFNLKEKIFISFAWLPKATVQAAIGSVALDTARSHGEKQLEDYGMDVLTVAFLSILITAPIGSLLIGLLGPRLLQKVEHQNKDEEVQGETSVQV
Experiment: Inhibition of the Sodium/Hydrogen Exchanger-Like Domain-Containing Protein 2 (NHA2, SLC9B2) as assessed by a sensor pH-sensitive genetically encoded fluorescent sensor (pHAxensor) in HEK-293 cells stably transfected with SLC9B2 (PubChem AID: 1794821)
Format: functional, cell-based, HEK293

IC50: 90 µM
Structure (SMILES): O=C(CCc1ccc(O)cc1)c1c(O)cc(O)cc1O [PHLORETIN]

Source: ChEMBL document CHEMBL5209583, “pH biosensor based assay for SLC9B2 using HEK-293 SLC9B2 OE cells” (2022)
